Test results from patent US6218431A, “Substituted biphenyls” (Bayer Corporation, priority 1997, dated 2001).

target: T1, glucagon receptor (Homo sapiens, UniProt P47871); assay: glucagon receptor binding assay (125I-glucagon, CHO-HGR membranes); conditions: 20 μM; reported where 20 μM did not reduce glucagon binding by 50%
T1 construct: expressed in transfected cells; host or cells: Chinese Hamster Ovary cells (CHO-HGR), membranes
Procedure: The affinity for the glucagon receptor of compounds of the present invention is determined by the glucagon receptor binding assay. Membranes were prepared from Chinese Hamster Ovary cells expressing the glucagon receptor (CHO-HGR) by scraping the cells into hypotonic lysis buffer (10 mM Tris, pH 7.4, 2 mM EDTA, 5 mM MgCl2 and 1 mM PMSF) and subjecting the material to Polytron homogenization. Nuclei were removed by a 15-min 800×g centrifugation step conducted at 4° C. Membranes containing the receptor were collected by centrifugation at 15,000×gfor 15 min at 4° C. The membranes were washed once in lysis buffer and suspended in 0.25 M sucrose, 10 mM Tris, 5 mM EDTA, pH 7.4. The membranes were used in ligand binding studies as reported (Yoo-Warren, H., Willse, A. G., Hancock, N., Hull, J., McCaleb, M., and Livingston, J. Regulation of Rat Glucagon Receptor Expression. Biochem. Biophysical Res. Commun. 1994, 205, 347-353). In brief, 10 ug of membrane protein was incubated in 130 μl of binding buffer that consisted of 20 mM Tris, […], 1 mM EDTA, 1 mg/ml BSA, and 1 mg/ml bacitracin. The membrane suspension was placed in each well of a 96-well filtration plate (glass fiber type C, Millipore). […] Following the addition of test compound, 50 μl of ^125 I-glucagon (9 fmol) (NEN) was added to each well. Control wells contained membranes, 0.5% DMSO (solvent for test compounds), radiolabeled glucagon without and with excess native glucagon (1 μM) to establish nonspecific binding. The plates were incubated for 60 min at room temperature, and then filtered on a Mllipore vacuum apparatus. Following a wash step with ice-cold PBS/0.1% BSA, the filters were punched into test tubes, and the membrane bound radioactivity was determined.

T1 sequence (P47871 26-477): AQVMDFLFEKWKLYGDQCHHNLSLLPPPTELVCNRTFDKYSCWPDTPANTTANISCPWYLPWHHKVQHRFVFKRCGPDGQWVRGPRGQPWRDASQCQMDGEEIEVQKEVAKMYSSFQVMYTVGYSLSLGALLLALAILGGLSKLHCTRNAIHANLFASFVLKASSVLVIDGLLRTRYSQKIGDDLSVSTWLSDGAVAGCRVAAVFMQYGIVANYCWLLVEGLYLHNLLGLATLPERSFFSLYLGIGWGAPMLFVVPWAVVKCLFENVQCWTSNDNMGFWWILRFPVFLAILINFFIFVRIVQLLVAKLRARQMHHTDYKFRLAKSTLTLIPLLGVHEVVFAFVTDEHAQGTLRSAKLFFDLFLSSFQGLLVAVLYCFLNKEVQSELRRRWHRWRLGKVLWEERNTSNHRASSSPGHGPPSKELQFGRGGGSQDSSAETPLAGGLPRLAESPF

Structure (SMILES) | inhibition at 20 µM
CC(C)c1nc(C(C)C)c(C(C)O)c(-c2ccc(F)cc2)c1CO (racemic) [Example 93, (±)-2,6-Diisopropyl-3-hydroxymethyl-4-(4-fluorophenyl-5-(1-hydroxy-ethyl)pyridine] | 28.3%
CCC(O)c1c(C(C)C)nc(C(C)C)c(CO)c1-c1ccc(F)cc1 (racemic) [Example 94, (±)-2,6-Diisopropyl-3-hydroxymethyl-4-(4-fluorophenyl)-5-(1-hydroxy-propyl)pyridine] | 38.5%
CCCCC(O)c1c(C(C)C)nc(C(C)C)c(CO)c1-c1ccc(F)cc1 (racemic) [Example 95, (±)-2,6-Diisopropyl-3-hydroxymethyl-4-(4-fluorophenyl)-5-(1-hydroxy-pentyl)pyridine] | 26.5%
CC(C)c1nc(C(C)C)c(C(O)c2ccccc2)c(-c2ccc(F)cc2)c1CO (racemic) [Example 96, (±)-2,6-Diisopropyl-3-hydroxymethyl-4-(4-fluorophenyl)-5-(hydroxy-phenylmethyl)pyridine] | 27.8%
CC(C)c1nc(C(C)C)c(C(O)C(C)C)c(-c2ccc(F)cc2)c1CO (racemic) [Example 97, (±)-2,6-Diisopropyl-3-hydroxymethyl-4-(4-fluorophenyl)-5-[(1-hydroxy-2-methyl)propyl]pyridine] | 29.2%
CCC(OC)c1c(C(C)C)nc(C(C)C)c(CO)c1-c1ccc(F)cc1 (racemic) [Example 99, (±)-2,6-Diisopropyl-3-hydroxymethyl-4-(4-fluorophenyl)-5-(1-methoxy-5-propyl)pyridine] | 43.2%
CCCCC(OC)c1c(C(C)C)nc(C(C)C)c(CO)c1-c1ccc(F)cc1 (racemic) [Example 100, (±)-2,6-Diisopropyl-3-hydroxymethyl-4-(4-fluorophenyl)-5-(1-methoxy-pentyl)pyridine] | 39.6%
C=CC(O)c1c(C(C)C)nc(C(C)C)c(CCCCC)c1-c1ccc(F)cc1 (racemic) [Example 114, (±)-2,6-Diisopropyl-3-(1-hydroxy-2-propenyl)-4-(4-fluorophenyl)-5-pentylpyridine] | 38.5%
CCCCCc1c(C(C)C)nc(C(C)C)c(C(O)CCCC)c1-c1ccc(F)cc1 (racemic) [Example 115, (±)-2,6-Diisopropyl-3-(1-hydroxypentyl)-4-(4-fluorophenyl)-5pentyl-pyridine] | 21.1%
C=CCC(O)c1c(C(C)C)nc(C(C)C)c(CCCCC)c1-c1ccc(F)cc1 (racemic) [Example 116] | 17%
CCCCCc1c(C(C)C)nc(C(C)C)c(C(O)CC)c1-c1ccc(F)cc1 (racemic) [Example 117] | 45.1%
CCCCCc1c(C(C)C)nc(C(C)C)c(C(O)C[S@+]([O-])c2ccc(C)cc2)c1-c1ccc(F)cc1 (single isomer, unassigned) [Example 112] | 4.17%

same assay, conditions: 125I-glucagon; 60 min at room temperature; read-out: IC50

Structure (SMILES) | IC50
COC(C)c1c(C(C)C)nc(C(C)C)c(CO)c1-c1ccc(F)cc1 (racemic) [Example 98, (±)-2,6-Diisopropyl-3-hydroxymethyl-4-(4-fluorophenyl)-5-(1-methoxyethyl)pyridine] | 14000 nM
CC(C)c1nc(C(C)C)c(C(C)O)c(-c2ccc(F)cc2)c1CSc1ccccc1 (racemic) [Example 113, (±)-2,6-Diisopropyl-3-(1-hydroxyethyl)-4-(4-fluorophenyl)-5-phenylthio-methylpyridine] | 600 nM
CCCCCc1c(C(C)C)nc(C(C)C)c(C(O)C(F)(F)F)c1-c1ccc(F)cc1 (racemic) [Example 118, (±)-2,6-Diisopropyl-3-(2,2,2-trifluoro-1-hydroxy)ethyl-4-(4-fluoro-phenyl)-5-pentylpyridine] | 13000 nM
CCCCCc1c(C(C)C)nc(C(C)C)c(C(O)CO)c1-c1ccc(F)cc1 (racemic) [Example 124, (±)-2,6-Diisopropyl-3-(1,2-dihydroxyethyl)-4-(4-fluorophenyl)-5-pentyl-pyridine] | 12000 nM
CCCc1c(C(C)C)nc(C(C)C)c(CO)c1-c1ccc(F)cc1O (racemic) [Example 239-rac, 2,6-Diisopropyl-3-(1-hydroxymethyl)-4-(4-fluoro-2-hydroxyphenyl)-5-propylpyridine] | 80 nM
CCCc1c(C(C)C)cc(C(C)C)c(CO)c1-c1ccc(F)cc1O (racemic) [Example 241, 3,5-Diisopropyl-2-hydroxymethyl-6-propyl-4'-fluoro-2'-hydroxy-1,1'-biphenyl] | 110 nM
CCCCCc1c(C(C)C)nc(C(C)C)c(C(C)O)c1-c1ccc(F)cc1 (single isomer, unassigned) [Example 107, 2,6-Diisopropyl-3-(1-hydroxyethyl-4-fluorophenyl)-5-pentylpyridine] | 3000 nM
CCCCCc1c(C(C)C)nc(C(C)C)c(C(C)O)c1-c1ccccc1O (single isomer, unassigned) [Example 164-D1, 2,6-Diisopropyl-3-(1-hydroxyethyl)-4-(2-hydroxyphenyl)-5-pentylpyridine] | 45 nM
CCCCCc1c(C(C)C)nc(C(C)C)c(C(C)O)c1-c1ccccc1O (single isomer, unassigned) [Example 164-D2, 2,6-Diisopropyl-3-(1-hydroxyethyl)-4-(2-hydroxyphenyl)-5-pentylpyridine] | 100 nM
CCCc1c(C(C)C)nc(C(C)C)c(CO)c1-c1ccc(F)cc1O (single isomer, unassigned) [Example 239-E1, 2,6-Diisopropyl-3-(1-hydroxymethyl)-4-(4-fluoro-2-hydroxyphenyl)-5-propylpyridine] | 2500 nM
CCCc1c(C(C)C)nc(C(C)C)c(CO)c1-c1ccc(F)cc1O (single isomer, unassigned) [Example 239-E2, 2,6-Diisopropyl-3-(1-hydroxymethyl)-4-(4-fluoro-2-hydroxyphenyl)-5-propylpyridine] | 50 nM
CCCCCc1c(C(C)C)cc(C(C)C)c(C(C)O)c1-c1ccc(F)cc1 (single isomer, unassigned; (+)) [Example 193, (+)-3,5-Diisopropyl-2-(1-hydroxyethyl)-6-pentyl-4'-fluoro-1,1-biphenyl] | 86 nM
CCCCCc1c(C(C)C)cc(C(C)C)c(C(C)O)c1-c1ccc(F)cc1 (single isomer, unassigned; (+)) [Example 243, (+)-3,5-Diisopropyl-2-(1-hydroxyethyl)-6-pentyl-4'-fluoro-1,1'-biphenyl] | 86 nM
CCc1c(C(C)C)cc(C(C)C)c(C(C)O)c1-c1ccc(F)cc1 (single isomer, unassigned; (+)) [Example 244, (+)-3,5-Diisopropyl-2-(1-hydroxyethyl)-6-ethyl-4'-fluoro-1,1'-biphenyl] | 180 nM
CCCc1c(C(C)C)cc(C(C)C)c(C(C)O)c1-c1ccc(F)cc1 (single isomer, unassigned; (+)) [Example 245, (+)-3,5-Diisopropyl-2-(1-hydroxyethyl)-6-propyl-4'-fluoro-1,1'-biphenyl] | 300 nM
Cc1ccc(COCc2c(C(C)C)cc(C(C)C)c(C(C)O)c2-c2ccc(F)cc2)cc1 (single isomer, unassigned; (+)) [Example 248, (+)-3,5-Diisopropyl-2-[(p-methylbenzyloxy)methyl]-6-(1-hydroxyethyl)-4'-fluoro-1,1'-biphenyl] | 310 nM
